Reference: US10604535B2, “Compounds, compositions and methods” (Denali Therapeutics Inc., priority 2016, dated 2020)

Molecular target: T1, GST-hRIPK1 (8-327) (Homo sapiens (Human), UniProt Q13546)
T1 sequence (Q13546 8-327): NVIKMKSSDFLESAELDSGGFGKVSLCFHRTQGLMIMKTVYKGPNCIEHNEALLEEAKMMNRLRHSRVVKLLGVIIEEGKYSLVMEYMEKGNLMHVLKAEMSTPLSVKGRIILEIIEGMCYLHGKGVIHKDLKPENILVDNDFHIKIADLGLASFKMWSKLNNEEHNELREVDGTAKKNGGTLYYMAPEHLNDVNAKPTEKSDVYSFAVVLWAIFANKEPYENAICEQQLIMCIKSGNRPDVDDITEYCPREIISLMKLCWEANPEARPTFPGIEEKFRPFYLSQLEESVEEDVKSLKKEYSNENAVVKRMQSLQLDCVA
Test: Fluorescent Polarization Binding (FP Binding) assay
Settings: not given
`C[C@H]1Oc2cccnc2N(C)C(=O)[C@H]1NC(=O)c1nn(Cc2ccccc2)cc1F` [Example 92, 1-benzyl-N-((2R,3S)-2,5-dimethyl-4-oxo-2,3,4,5-tetrahydropyrido[3,2-b][1,4]oxazepin-3-yl)-4-fluoro-1H-pyrazole-3-carboxamide] gave an IC50 of 0.0001 to 1 µM.

Molecular target: T1, GST-hRIPK1 (8-327)
Test: ADP-Glo kinase assay
Format: biochemical
Settings: not given
Procedure: GST-hRIPK1 (8-327) enzyme was generated by Proteros GmbH by Baculovirus expression system.
Test compounds were diluted in DMSO and 0.1 μL of solution was dispensed to each well of a 384-well white solid microplate. The assay buffer was 50 mM HEPES pH 7.5, 50 mM NaCl, 30 mM MgCl2. The buffer was supplemented with 0.02% CHAPS, 0.01% of Pluronic F127, 0.1 mg/mL BSA and 1 mM DTT. MnCl2, 5 mM, was included in the assay buffer on the day of the experiment. The enzymatic reaction comprised 1.5 μg/mL GST-hRIPK1 (8-327) and 50 μM ATP for receptor interacting protein kinase 1 and 15 μM ATP. 5 μL of enzyme and 5 μL of ATP were added to the plate at twice the final assay concentration and incubated at room temperature for 3 hours. Following this reaction, 10 μL of ADP-Glo reagent (Promega) was added to each well and incubated for 40 min at room temperature. This stops the kinase reaction and depletes any remaining ATP. 20 μL of ADP-Glo detection reagent was then added to each well and incubated at room temperature for at least 15 minutes. The detection reagent converts ADP to ATP and introduces luciferase and luciferin to detect ATP. The luminescence is then measured with the Envision (PerkinElmer) plate reader. Test compound inhibition was expressed as percent inhibition of internal assay controls. For concentration response curves, normalized data is fit and IC50 determined using XL-fit (IDBS) for Excel. The IC50 were averaged to determine a mean value, for a minimum of two independent experiments.
Test compound inhibition was expressed as percent inhibition of internal assay controls. For concentration response curves, normalized data is fit and IC50 determined using XL-fit (IDBS) for Excel. The IC50 were averaged to determine a mean value, for a minimum of two independent experiments.
In the case of `O=C(NC1CCc2ccccc2CC1)c1cc(Cc2ccccc2)on1` [Example 15, 5-benzyl-N-(6,7,8,9-tetrahydro-5H-benzo[7]annulen-7-yl)isoxazole-3-carboxamide], the IC50 is reported as > 10 µM. For `Cc1cc(C(=O)N[C@H]2COc3ccccc3N(C)C2=O)n(Cc2ccccc2)n1` [Example 16, (S)-1-benzyl-3-methyl-N-(5-methyl-4-oxo-2,3,4,5-tetrahydrobenzo[b][1,4]oxazepin-3-yl)-1H-pyrazole-5-carboxamide], the IC50 was > 10 µM. For `CN1C(=O)[C@@H](NC(=O)c2cnn3c2[C@@H](c2ccccc2)CC3)COc2ccccc21` [Example 17, (R)—N—((S)-5-methyl-4-oxo-2,3,4,5-tetrahydrobenzo[b][1,4]oxazepin-3-yl)-4-phenyl-5,6-dihydro-4H-pyrrolo[1,2-b]pyrazole-3-carboxamide], the IC50 was > 10 µM. In the case of `CN1C(=O)[C@@H](NCC(=O)NCc2ccccc2)COc2ccccc21` [Example 18, (S)—N-benzyl-2-((5-methyl-4-oxo-2,3,4,5-tetrahydrobenzo[b][1,4]oxazepin-3-yl)amino)acetamide], the IC50 is reported as > 10 µM. `CCN1C(=O)[C@@H](NC(=O)c2cc(Cc3ccccc3)on2)COc2ccccc21` [Example 19, (S)-5-benzyl-N-(5-ethyl-4-oxo-2,3,4,5-tetrahydrobenzo[b][1,4]oxazepin-3-yl)isoxazole-3-carboxamide] showed an IC50 of 1 to 10 µM. Compound `CN1CC(NC(=O)c2nnc(Cc3ccccc3)[nH]2)CCc2ccccc21` (stereo not drawn) [Example 20, 5-benzyl-N-(1-methyl-2,3,4,5-tetrahydro-1H-benzo[b]azepin-3-yl)-4H-1,2,4-triazole-3-carboxamide] has an IC50 of 1 to 10 µM. With `O=C(N[C@H]1COC[C@H]2CCCN2C1=O)c1cc(Cc2ccccc2)on1` [Example 21, 5-benzyl-N-((4S,9aR)-5-oxohexahydro-1H,3H-pyrrolo[2,1-c][1,4]oxazepin-4-yl)isoxazole-3-carboxamide] the IC50 was > 10 µM. For `O=C(N[C@H]1COC[C@@H]2CCCN2C1=O)c1cc(Cc2ccccc2)on1` [Example 22, 5-benzyl-N-((4S,9aS)-5-oxohexahydro-1H,3H-pyrrolo[2,1-c][1,4]oxazepin-4-yl)isoxazole-3-carboxamide], the IC50 was > 10 µM. In the case of `CN1CCCC[C@H](NC(=O)c2nnc(Cc3ccccc3)[nH]2)C1=O` [Example 23, (S)-5-benzyl-N-(1-methyl-2-oxoazepan-3-yl)-4H-1,2,4-triazole-3-carboxamide], the IC50 is reported as > 10 µM. For `CN1C(=O)[C@@H](NC(=O)c2ccc(C#N)n2C)COc2ccccc21` [Example 24, (S)-5-cyano-1-methyl-N-(5-methyl-4-oxo-2,3,4,5-tetrahydrobenzo[b][1,4]oxazepin-3-yl)-1H-pyrrole-2-carboxamide], the IC50 was > 10 µM. With `Cc1nnc(C(=O)N[C@H]2COc3ccccc3N(C)C2=O)[nH]1` [Example 25, (S)-5-methyl-N-(5-methyl-4-oxo-2,3,4,5-tetrahydrobenzo[b][1,4]oxazepin-3-yl)-4H-1,2,4-triazole-3-carboxamide] the IC50 was > 10 µM. With `CC(=O)N[C@H]1COc2ccccc2N(C)C1=O` [Example 26, (S)—N-(5-methyl-4-oxo-2,3,4,5-tetrahydrobenzo[b][1,4]oxazepin-3-yl)acetamide] the IC50 was > 10 µM. With `O=C(N[C@H]1COC[C@@H]2CCCN2C1=O)c1nnc(Cc2ccccc2)[nH]1` [Example 27, 5-benzyl-N-((4S,9aS)-5-oxohexahydro-1H,3H-pyrrolo[2,1-c][1,4]oxazepin-4-yl)-4H-1,2,4-triazole-3-carboxamide] the IC50 was > 10 µM.

Test system: not given
Test: not given
Settings: male, Sprague-Dawley Crl:CD(SD), in vivo, iv
In the case of `C[C@H]1Oc2cccnc2N(C)C(=O)[C@H]1NC(=O)c1nn(Cc2ccccc2)cc1F` [Example 92, 1-benzyl-N-((2R,3S)-2,5-dimethyl-4-oxo-2,3,4,5-tetrahydropyrido[3,2-b][1,4]oxazepin-3-yl)-4-fluoro-1H-pyrazole-3-carboxamide], the “Rat unbound CL” value is reported as 420 mL/min/kg.
